Reference: patent US20110243844A1, “SULFONAMIDE DERIVATIVE METABOTROPIC GLUTAMATE R4 LIGANDS” (priority 2008, published 2011)

Tests used:
mGluR4 [1] = target: T1, mGluR4 (Homo sapiens, UniProt Q14833); assay: Fluorescent Imaging Plate Reader (FLIPR) assay for mGluR4 potentiators; format: cell-based; set-up: expressed in transfected cells; conditions: for EC50: inflection point of curve, potentiation of EC10 concentration of L-AP4 (30 nM), read-out: mGluR4 FLIPR Potency; for Emax: maximal activity relative to response with saturating concentration (10 uM) of agonist L-AP4, read-out: mGluR4 FLIPR % Max Efficacy
T1 sequence (Q14833 33-912): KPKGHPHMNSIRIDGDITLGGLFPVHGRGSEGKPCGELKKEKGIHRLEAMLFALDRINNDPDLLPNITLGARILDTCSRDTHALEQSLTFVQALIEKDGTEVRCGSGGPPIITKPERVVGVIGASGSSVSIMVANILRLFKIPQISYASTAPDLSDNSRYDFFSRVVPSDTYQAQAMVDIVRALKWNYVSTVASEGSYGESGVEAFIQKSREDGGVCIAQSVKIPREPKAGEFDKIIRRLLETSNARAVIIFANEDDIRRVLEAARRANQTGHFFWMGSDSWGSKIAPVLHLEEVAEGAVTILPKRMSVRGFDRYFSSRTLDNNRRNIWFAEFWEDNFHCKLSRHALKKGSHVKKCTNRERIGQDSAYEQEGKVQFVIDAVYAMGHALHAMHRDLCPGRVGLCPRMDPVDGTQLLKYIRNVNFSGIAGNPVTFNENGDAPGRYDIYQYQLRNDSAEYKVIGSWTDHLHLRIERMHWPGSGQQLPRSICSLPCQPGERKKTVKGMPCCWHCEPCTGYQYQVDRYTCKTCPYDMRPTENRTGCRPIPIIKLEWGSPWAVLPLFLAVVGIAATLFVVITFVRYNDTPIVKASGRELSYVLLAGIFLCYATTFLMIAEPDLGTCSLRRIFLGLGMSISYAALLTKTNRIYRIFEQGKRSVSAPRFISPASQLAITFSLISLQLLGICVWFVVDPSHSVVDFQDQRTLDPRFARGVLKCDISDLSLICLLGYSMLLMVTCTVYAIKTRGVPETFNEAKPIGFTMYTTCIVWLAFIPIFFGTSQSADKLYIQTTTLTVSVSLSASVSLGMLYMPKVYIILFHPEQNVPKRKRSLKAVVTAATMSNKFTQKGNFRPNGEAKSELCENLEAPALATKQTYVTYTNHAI
Protocol: Fluorescent Imaging Plate Reader (FLIPR) Assay for mGluR4 Potentiators Cells are grown in Corning […] cm^2 flasks in DMEM growth media at 37° C. and 5% CO2. Growth media contains: […] The day prior to the experiment the cells were plated in growth medium (minus glutamine) at 50K cells/well into Becton-Dickinson 384-well PDL-coated plates using a Labsystems Multidrop (0.1 ml/well). The cells are grown overnight at 37° C. and 6% CO2. The following day, the cells are washed with Assay Buffer at 37° C. using a Skatron EMBLA cell washer (3×100 μl, aspiration 3 mm from bottom will leave 30 μl of buffer in each well). Assay buffer is Hanks balanced salt solution with 20 mM HEPES, 2.5 mM probenecid and 0.1% BSA. Fluorescent dye, 30 μl of the diluted Fluo-4-AM, is added to each well of the plate. […] The assay plates are placed back into the 6% CO2 incubator and incubated at 37° C. for 60 min. The 384-well plates are washed with Assay Buffer at 37° C. on using a cell washer (3×100 μl, aspiration 3 mm from bottom, will leave 30 μl of buffer in each well). The experimental run is initiated and after 30 sec a dose of test compound is applied. The fluorescent response elicited by test compound is monitored for 5 min, any positive response detected at this stage is attributed to agonist properties of the test compound. […] Controls for the assay include a no compound control, a positive control which is a saturating concentration, 10 uM, of the agonist L-AP4. A 10 point dose response, with either 2-fold or 3-fold dilution steps, is performed and curve fitting algorithms, suitable for a sigmoidal dose response relationship, are used to fit the data. The inflection point of the curve provides a measure of compound potency. A comparison of the maximal level of activity achieved for a test compound, relative to the response achieved with a saturating concentration of the agonist L-AP4 provides a measure of compound efficacy.

mGluR4 [2] = target: T1, mGluR4; assay: mGluR4 binding assay (filtration, [3H] radiotracer displacement, in presence of L-AP4); set-up: expressed in transfected cells; host or cells: CHO cells; conditions: membranes from CHO cells expressing human mGluR4; 20 uM L-AP4; 7 nM radiotracer; 1 hour at room temperature
Protocol: Membranes were prepared from CHO cells expressing the human mGluR4 receptor. Cells were harvested using trypsin and then washed in assay buffer, assay buffer contains 50 mM HEPES, 1 mM EDTA and protease inhibitors (Boehringer Mannheim catalog #1 836 170). Harvested cells were pelleted by centrifugation and stored at −80° C. for a minimum of 12 hours. Cells were resuspended in assay buffer and lysed by a polytron, a low speed spin, 2000×g for 10 min, was used to recover unbroken cells for additional treatment using the polytron. The cleared supernatant from the low speed spins was subjected to a high speed spin, 96,000×g for 1 hour. The membrane pellet from the high speed spin was resuspended in assay buffer and used in the mGluR4 binding assay.
The binding assay follows a standard filtration binding paradigm. The binding buffer consists of 20 mM HEPES, 100 mM NaCl and 3 mM MgCl2, the pH of the buffer is 7.4. The assay is performed in a 96-well format with each well containing test compound, 25 to 50 ug of membrane protein, 20 uM L-AP4, and 7 nM radiotracer, [^3H]-N-[3-Chloro-4-(4-methyl-1,3-dioxo-1,3-dihydro-2H-isoindol-2-yl)phenyl]pyridine-2-carboxamide, which is disclosed in commonly owned U.S. patent application docket no. MRL-NOP-00030-US-PSP, filed contemporaneously with this application.
The binding reaction is incubated at room temperature for 1 hour, and then is passed through GF/B filter that was presoaked with 0.5% PEI. The cell membranes are collected on the filter and then washed five times with ˜5 ml ice cold binding buffer that contains 0.01% BSA. The washed filter plate is dried for 30 minutes at 37° C., scintillation fluid is added, and the amount of filter bound radioactivity is determined using a TopCount instrument. Total binding is determined in the absence of any test compound, but in the presence of the DMSO concentration that would result from the addition of test compound. To determine the level of non-specific binding for the radiotracer [^3H]-N-[3-Chloro-4-(4-methyl-1,3-dioxo-1,3-dihydro-2H-isoindol-2-yl)phenyl]pyridine-2-carboxamide, 5 uM of unlabeled […]N-[3-Chloro-4-(4-methyl-1,3-dioxo-1,3-dihydro-2H-isoindol-2-yl)phenyl]pyridine-2-carboxamide, is added to determine the level of non-specific binding.
A 10-point dose response, with either 2-fold or 3-fold dilution steps, is performed and curve fitting algorithms, suitable for a sigmoidal dose response relationship, are used to fit the data. The inflection point of the curve, or IC50, provides a measure of the affinity of a test compound for the mGluR4 receptor.

Row | SMILES | EC50 (mGluR4 [1]) [nM] | Emax (mGluR4 [1]) [%] | IC50 (mGluR4 [2]) [nM]
1 | O=C(Nc1ccc(S(=O)(=O)Nc2ccccc2Cl)cc1)c1ccccn1 [Example 1, N-(4-{[(2-Chlorophenyl)amino]sulfonyl}phenyl)pyridine-2-carboxamide] | 162 | 111 | 33
2 | COc1cc(NC(=O)c2ccccn2)ccc1S(=O)(=O)Nc1ccccc1 [Example 6] | 3940 | 70 | 6080
3 | Cc1ccc(NS(=O)(=O)c2ccc(NC(=O)c3ccccn3)cc2)cc1 [Example 18] | 1350 | 93 | 1100
4 | O=C(Nc1ccc(S(=O)(=O)Nc2ccccc2Br)cc1)c1ccccn1 [Example 30] | 134 | 110 | 141
5 | O=C(Nc1ccc(S(=O)(=O)Nc2ccccc2Cc2ccccc2)cc1)c1ccccn1 [Example 41] | 480 | 124 | 182
